Results taken from patent US20130178437A1, “CONJUGATES COMPRISING HYDROXYALKYL STARCH AND A CYTOTOXIC AGENT AND PROCESS FOR THEIR PREPARATION” (priority 2010, published 2013).
Marks after values point to notes of the source that are not given here.

Columns and labels:
[1] = test system: human breast cancer carcinoma MT-3; experiment: Tumor growth inhibition, s.c. MT-3 xenografts in nude mice (doxorubicin conjugates); format: in vivo, NMRI:nu/nu mice; details: 8 mg/kg/inj. i.v.
Excerpt: (§1) For all in vivo studies in which doxorubicin conjugates wer administred, adult female NMRI:nu/nu mice (TACONIC Europe, Lille Skensved, Denmark) were used throughout the study.
(§2) The human breast cancer carcinoma MT-3, human ovarian cancer carcinoma ovcar-3 and human mamma carcinoma MT3-ADR were used as s.c. xenotransplantation model in immunodeficient female […] mice (see table 17).
(§3) The cells were obtained from ATCC and are cryo-preserved within the EPO tumor bank. They were thawed, expanded in vitro and transplanted as cell suspension subcutaneously (s.c.) in female NMRI:nu/nu mice. The tumor lines MT-3, ovcar-3 and MT3-ADR are used for testing new anticancer drugs or novel therapeutic strategies. It was therefore selected for this study. MT-3, ovcar-3 and MT3-ADR xenografts are growing relatively fast and uniform.
(§4) For experimental use 5*10^6 to 10^7 tumor cells/mouse from the in vitro passage were transplanted s.c. into the flank of each of 10 mice/group at day 0.
(§5) At palpable tumor size (30-100 mm^3) treatment started. The application volume was 0.2 ml/20 g mouse body weight. The test compounds, the vehicle controls and the reference compounds were all given intravenously (i.v.).
(§6) Tumor growth inhibition was used as therapeutic parameter. Additionally, body weight change was determined as signs for toxicity (particularly, potential hematological or gastrointestinal side effects).
(§7) Tumor diameters were measured twice weekly with a caliper. Tumor volumes were calculated according to V=(length×(width)^2)/2. For calculation of the relative tumor volume (RTV) the tumor volumes at each measurement day were related to the day of first treatment. At each measurement day the median and mean tumor volumes per group and also the treated to control (T/C) values in percent were calculated (Table 10 to 15).
Descriptive statistics were performed on the data of body weight and tumor volume. […] Statistical evaluation was performed with the U-test of Mann and Whitney with a significance level of p≦0.05, using the Windows program […] 6.
The tested Doxorubicin conjugates CDx1 to CDx15 were obtained as described herein above and were kept in a freeze-dried form at −20° C. until the use. Before administration, the conjugates were dissolved in saline solution by vortexing in combination with centrifugation until a clear solution of the necessary concentration of the drug was obtained. The obtained solutions were prepared and injected under sterile conditions.
The reference compound was Doxorubicin (which is, for example, available as Doxorubicin NC® from Neocorp). Doxorubicin was stored in aliquots at 4° C. in the dark and diluted in saline before administration.
(§8) Tables 10 to 15 summarize the results for the tested, Doxorubicin conjugates and the reference compound Doxorubicin.

[2] = test system: human ovarian cancer carcinoma ovcar-3; experiment: Tumor growth inhibition, s.c. ovcar-3 xenografts in nude mice (doxorubicin conjugates); format: in vivo, NMRI:nu/nu mice; details: Table 13; 8 mg/kg/inj. i.v., treatment d 5
Excerpt: as §1, §2, §3, §4, §5, §6, §7
(§9) Descriptive statistics were performed on the data of body weight and tumor volume. […] Statistical evaluation was performed with the U-test of Mann and Whitney with a significance level of p≦0.05, using the Windows program […] 6. […]

[3] = test system: human mamma carcinoma MT3-ADR; experiment: Tumor growth inhibition, s.c. MT3-ADR xenografts in nude mice (doxorubicin conjugates); format: in vivo, NMRI:nu/nu mice; details: Table 14; 8 mg/kg/inj. i.v., treatment d 10
Excerpt: as §1, §2, §3, §4, §5, §6, §7, §9

[4] = Body weight change and toxic deaths in xenograft-bearing mice (doxorubicin studies); format: in vivo, NMRI:nu/nu mice; details: for Toxic deaths: 7 mice
Protocol: as §1, §5, §6
Individual body weights of mice were determined twice weekly and mean body weight per group was related to the initial value in percent (body weight change, BWC).
On the day of necropsy the mice were sacrificed by cervical dislocation and inspected for gross organ changes.
as §8
The loss of body weight is known to be an indicator of gastro-intestinal and hepatotoxicity of the tested compound.

[5] = test system: human breast cancer carcinoma MT-3; experiment: Tumor growth inhibition, s.c. MT-3 xenografts in nude mice (epirubicin and idarubicin conjugates); format: in vivo, NMRI-nu/nu nude mice; details: MT-3 subtype obtained from a different laboratory; unmodified drug
Protocol: All experiments were performed using 5-6 weeks old female NMRI^−nu/nu nude mice (approximate weight: 30 g after acclimatization). Mice were maintained in individual ventilated cages (IVC, max. 3 mice/cage) at constant temperature and humidity. Animal weights were taken every other day (Monday, Wednesday and Friday). Animal behavior was monitored daily. At study end, animals were sacrificed and in case the tumor volume was measured a necropsy was performed.
Monolayers of MT-3 cells were grown in DMEM 4500 with phenol red supplement with 10% FCS, 1% L-Glutamine, 100 units penicillin/ml, and 100 μg of streptomycin/ml. MT-3 cells were cultured in a humidified atmosphere of 90% air and 10% carbon dioxide at 37° C. Media were routinely changed every 3 days.
For experimental use 5×10^6 to 10^7 tumor cells/mouse from the in vitro passage were transplanted s.c. into the flank of each of 10 mice/group at day 0.
At palpable tumor size (30-100 mm^3) treatment was started. The application volume was 0.2 ml/20 g mouse body weight. The test compounds, the vehicle controls and the reference compounds were all given intravenously (i.v.).
Tumor growth inhibition was used as therapeutic parameter. Additionally, body weight change was determined as signs for toxicity (particularly, potential hematological or gastrointestinal side effects). […]

[6] = Table 13, ovcar-3 model, 8 mg/kg/inj. i.v., treatment d 5
[7] = Table 14, MT3-ADR model, 8 mg/kg/inj. i.v., treatment d 10

COc1cccc2c1C(=O)c1c(O)c3c(c(O)c1C2=O)C[C@@](O)(C(=O)CO)C[C@@H]3O[C@H]1C[C@H](N)[C@H](O)[C@H](C)O1 [Doxorubicin]
T/C (%) (TV) at the end ([1]; Table 10, treatment d 7, 14): 1.16 +/− 0.35% | T/C (%) Optimum ([1]; Table 10, treatment d 7, 14): 32.2% | T/C (%) Optimum (at day) ([1]; Table 10, treatment d 7, 14): (18) day | Tumor growth RTV d 28 ([1]; Table 10, treatment d 7, 14): 10.8 +/− 3.7 | T/C (%) Optimum ([1]; Table 11, treatment d 10): 30% | T/C (%) Optimum (at day) ([1]; Table 11, treatment d 10): (21) day | Tumor growth RTV d 28 ([1]; Table 11, treatment d 10): 4.3 +/− 3.4 | RTV T/C (%) Optimum ([1]; Table 12, treatment d 7): 39.2% | RTV T/C (%) Optimum (at day) ([1]; Table 12, treatment d 7): (29) day | Tumor growth RTV d 33 ([1]; Table 12, treatment d 7): 5.59 +/− 0.78* | T/C (%) Optimum ([1]; Table 15, treatment d 7): 37.8% | T/C (%) Optimum (at day) ([1]; Table 15, treatment d 7): (13) day | Tumor growth RTV d 20 ([1]; Table 15, treatment d 7): 8.1 +/− 2.1* | RTV T/C (%) Optimum [2]: 37.1% | RTV T/C (%) Optimum (at day) [2]: (19) day | Tumor growth RTV d 39 [2]: 9.86 +/− 7.98 | RTV T/C (%) Optimum [3]: 58.4% | RTV T/C (%) Optimum (at day) [3]: (29) day | Tumor growth RTV d 31 [3]: 15.3 +/− 5.9* | BWC (%) (d 10/d 28) ([4]; Table 11, MT-3 model, 8 mg/kg/inj. i.v., treatment d 10): 2% | BWC [%] (at day) ([4]; Table 12, MT-3 model, 8 mg/kg/inj. i.v., treatment d 7): (19) day | BWC [%] ([4]; Table 12, MT-3 model, 8 mg/kg/inj. i.v., treatment d 7, maximum body weight loss): −2% | BWC [%] (at day) [4, 6]: (7) day | Toxic deaths [4, 6]: 0 | BWC [%] ([4]; Table 13, ovcar-3 model, 8 mg/kg/inj. i.v., treatment d 5, maximum body weight loss): −4% | BWC [%] (at day) [4, 7]: (25) day | Toxic deaths [4, 7]: 0 | BWC [%] ([4]; Table 14, MT3-ADR model, 8 mg/kg/inj. i.v., treatment d 10, maximum body weight loss): −8% | BWC (%) (d 7/d 20) ([4]; Table 15, MT-3 model, 8 mg/kg/inj. i.v., treatment d 7): −6% | BWC (%): day of maximum body weight loss ([4]; mouse, in vivo, iv, 8 mg/kg): (d 24) | BWC [%] ([4]; mouse, in vivo, iv, 8 mg/kg): −8%

COc1cccc2c1C(=O)c1c(O)c3c(c(O)c1C2=O)C[C@@](O)(C(=O)CO)C[C@@H]3O[C@H]1C[C@H](N)[C@@H](O)[C@H](C)O1 [Epirubicin]
sensibility of the MT-3 subtype towards anthracycline therapy [5]: no sensibility towards anthracycline therapy

CC(=O)[C@]1(O)Cc2c(O)c3c(c(O)c2[C@@H](O[C@H]2C[C@H](N)[C@H](O)[C@H](C)O2)C1)C(=O)c1ccccc1C3=O [Idarubicin]
sensibility of the MT-3 subtype towards anthracycline therapy [5]: no sensibility towards anthracycline therapy
